Results published in patent US20240390464A1, “Treatment of Adults With Overweight or Obesity With or Without Weight-Related Comorbidities” (Carmot Therapeutics Inc., priority 2023, published 2024).
Entries after “also recorded” stand apart in the source; their conditions may differ. Marks after values point to notes of the source that are not given here. Numbered stars: 1 amine (or outer) side, 2 acyl side, 3 side chain; on linkers, the order of the positions; unused ones are H or OH. Square brackets hold non-standard residues; d marks the D form. Side chains are listed from the residue outwards. Peptide text beside a SMILES is read from it. * marks the point of attachment. Isobutyryl(2-(3-CN-5-F-Ph)) = CC(C)(C(=O)*)c1cc(F)cc(C#N)c1; C20 diacid = O=C(O)CCCCCCCCCCCCCCCCCCC(=O)*; γGlu = O=C(O)[C@H](CCC(=O)[*:2])N[*:1]; AEEA = NCCOCCOCC(=O)O; Aib = CC(C)(N)C(=O)O; βAla = NCCC(=O)O

Assay: Phase 1 MAD Cohorts 6-8: safety and tolerability (TEAEs)
Format: in vivo, human
Details: for Abdominal Distention / Constipation / Constipation Grade 1 / Constipation Grade 2 / Constipation Grade 3 / Diarrhea / Diarrhea Grade 1 / Diarrhea Grade 2 / Diarrhea Grade 3 / Drug-related TEAEs / Dyspepsia / Eructation / Fatal TEAEs / GI TEAEs (Total) / Gastroesophageal Reflux Disease / Nausea / Nausea Grade 1 / Nausea Grade 3 / Serious TEAEs / Subjects discontinued due to TEAE / Subjects with at least 1 TEAE / TEAE Severity: Grade 1 / TEAE Severity: Grade 2 / TEAE Severity: Grade 3 / Vomiting / Vomiting Grade 1 / Vomiting Grade 2 / Vomiting Grade 3 / Nausea Grade 2: N = 6
Description: The primary objective of this study is to determine the safety and tolerability of CT-388 in otherwise healthy overweight and obese adult participants when administered once weekly over 4 consecutive weeks with titrated dosing.
Safety and tolerability will be assessed by monitoring adverse events (AE) including local injection-site reactions, measuring vital signs and ECGs, and performing clinical laboratory blood and urine analyses.
• Cohort 6: One weekly dose titrated across 4 consecutive weeks with CT-388 doses of . . . • 5.0 mg at Day 1 • 5.0 mg at Day 8 • 5.0 mg at Day 15 • 7.5 mg at Day 22 • . . . or matched placebo administered subcutaneously in the abdomen • Cohort 7: One weekly dose titrated across 4 consecutive weeks with CT-388 doses of . . . • 5.0 mg at Day 1 • 5.0 mg at Day 8 • 8.0 mg at Day 15 • 12.0 mg at Day 22 • . . . or matched placebo administered subcutaneously in the abdomen • Cohort 8: One weekly dose titrated across 4 consecutive weeks with CT-388 doses of . . . • 5.0 mg at Day 1 • 8.0 mg at Day 8 • 12.0 mg at Day 15 • 12.0 mg at Day 22 • . . . or matched placebo administered subcutaneously in the abdomen (the third dose in Cohort 8 can be lowered to 8.0 mg based on tolerability data from Cohort 7) • Cohort 9: One weekly dose titrated across 4 consecutive weeks with CT-388 doses of . . . • 8.0 mg at Day 1 • 8.0 mg at Day 8 • 12.0 mg at Day 15 • 16.0 mg at Day 22 • . . . or matched placebo administered subcutaneously in the abdomen • Cohort 10: the following two dosing options are proposed in Table 3 below:
A Phase 1, randomized, placebo-controlled, double-blind study was conducted where single ascending doses (SAD; n=40; 0.5-7.5 mg) and multiple ascending doses (MAD; n=24; 5-12 mg via titration in 3 cohorts) were administered as described in Example 1 to overweight/obese adults.
The 24 patients in the MAD arm were divided into three cohorts (Cohorts 6, 7, and 8) as shown in Table 5 below (EOT: end of treatment).
Briefly, participants were randomized 3:1 (6 to CT-388, 2 to placebo, n=8 per cohort). CT-388 was administered once weekly at a dose of 5 mg at baseline in all cohorts and up-titrated up to 12 mg in Cohorts 7 & 8. Oral Glucose Tolerance Test (OGTT) with 75 g glucose solution was performed at baseline (Day −1) and on Day 23. Blood was collected at 15 min prior to OGTT, at OGTT start, and in 30-minute intervals until 120 minutes. Fasting glucose, insulin, C-peptide, and HOMA-IR were measured/calculated at baseline and on Day 23.

## CC[C@H](C)[C@H](NC(=O)[C@H](CC(C)C)NC(=O)[C@H](Cc1c[nH]c2ccccc12)NC(=O)[C@H](CCC(N)=O)NC(=O)[C@@H](NC(=O)[C@H](Cc1ccccc1)NC(=O)[C@H](C)NC(=O)[C@H](CCCCNC(=O)COCCOCCNC(=O)COCCOCCNC(=O)CC[C@H](NC(=O)CCCCCCCCCCCCCCCCCCC(=O)O)C(=O)O)NC(=O)[C@H](CCC(N)=O)NC(=O)[C@H](C)NC(=O)[C@@H](NC(=O)[C@H](CCCCN)NC(=O)[C@H](CC(=O)O)NC(=O)[C@H](CC(C)C)NC(=O)C(C)(C)NC(=O)[C@@H](NC(=O)[C@H](CO)NC(=O)[C@H](Cc1ccc(O)cc1)NC(=O)[C@H](CC(=O)O)NC(=O)[C@H](CO)NC(=O)[C@@H](NC(=O)[C@H](Cc1ccccc1)NC(=O)[C@@H](NC(=O)CNC(=O)[C@H](CCC(=O)O)NC(=O)CCNC(=O)C(C)(C)c1cc(F)cc(C#N)c1)[C@@H](C)O)[C@@H](C)O)[C@@H](C)CC)[C@@H](C)CC)C(C)C)C(=O)N[C@@H](C)C(=O)NCC(=O)NCC(=O)N1CCC[C@H]1C(=O)N[C@@H](CO)C(=O)N[C@@H](CO)C(=O)NCC(=O)N[C@@H](C)C(=O)N1CCC[C@H]1C(=O)N1CCC[C@H]1C(=O)N1CCC[C@H]1C(=O)N[C@@H](CO)C(N)=O [CT-388] ({Isobutyryl(2-(3-CN-5-F-Ph))-βAla}-EGTFTSDYSI[Aib]LDKIAQK([AEEA-AEEA-γGlu-C20 diacid])AFVQWLIAGGPSSGAPPPS-NH2)
Cohort 6, 5/5/5/7.5 mg SC QW
  Abdominal Distention: 3 n (%)
  Constipation: 3 n (%)
  Constipation Grade 1: 3 n (%)
  Constipation Grade 2: 0 n (%)
  Constipation Grade 3: 0 n (%)
  Diarrhea: 2 n (%)
  Diarrhea Grade 1: 2 n (%)
  Diarrhea Grade 2: 0 n (%)
  Diarrhea Grade 3: 0 n (%)
  Drug-related TEAEs: 33 # Events
  Dyspepsia: 1 n (%)
  Eructation: 0 n (%)
  Fatal TEAEs: 0 # Events
  GI TEAEs (Total): 6 n (%)
  Gastroesophageal Reflux Disease: 0 n (%)
  Nausea: 6 n (%)
  Nausea Grade 1: 4 n (%)
  Nausea Grade 3: 0 n (%)
  Serious TEAEs: 0 # Events
  Subjects discontinued due to TEAE: 0 n (%)
  Subjects with at least 1 TEAE: 6 (100) n (%)
  TEAE Severity: Grade 1: 6 (100) n (%)
  TEAE Severity: Grade 2: 6 (100) n (%)
  TEAE Severity: Grade 3: 0 n (%)
  Vomiting: 5 n (%)
  Vomiting Grade 1: 2 n (%)
  Vomiting Grade 2: 3 n (%)
  Vomiting Grade 3: 0 n (%)
Cohort 6, 5/5/5/7.5 mg SC QW, same subject experienced both mild and moderate events
  Nausea Grade 2: 4 n (%)
Cohort 7, 5/5/8/12 mg SC QW
  Abdominal Distention: 0 n (%)
  Constipation: 0 n (%)
  Constipation Grade 1: 0 n (%)
  Constipation Grade 2: 0 n (%)
  Constipation Grade 3: 0 n (%)
  Diarrhea: 2 (33.3) n (%)
  Diarrhea Grade 1: 2 (33.3) n (%)
  Diarrhea Grade 2: 0 n (%)
  Diarrhea Grade 3: 0 n (%)
  Drug-related TEAEs: 18 # Events
  Dyspepsia: 0 n (%)
  Eructation: 2 (33.3) n (%)
  Fatal TEAEs: 0 # Events
  GI TEAEs (Total): 4 (66.7) n (%)
  Gastroesophageal Reflux Disease: 0 n (%)
  Nausea: 1 (16.7) n (%)
  Nausea Grade 1: 1 (16.7) n (%)
  Nausea Grade 2: 0 n (%)
  Nausea Grade 3: 0 n (%)
  Serious TEAEs: 0 # Events
  Subjects discontinued due to TEAE: 0 n (%)
  Subjects with at least 1 TEAE: 6 n (%)
  TEAE Severity: Grade 1: 6 n (%)
  TEAE Severity: Grade 2: 1 n (%)
  TEAE Severity: Grade 3: 0 n (%)
  Vomiting: 2 (33.3) n (%)
  Vomiting Grade 1: 2 (33.3) n (%)
  Vomiting Grade 2: 0 n (%)
  Vomiting Grade 3: 0 n (%)
Cohort 8, 5/8/12/12 mg SC QW
  Abdominal Distention: 0 n (%)
  Constipation: 1 (16.7) n (%)
  Constipation Grade 1: 1 (16.7) n (%)
  Constipation Grade 2: 0 n (%)
  Constipation Grade 3: 0 n (%)
  Diarrhea: 3 (50.0) n (%)
  Diarrhea Grade 1: 3 (50.0) n (%)
  Diarrhea Grade 2: 0 n (%)
  Diarrhea Grade 3: 0 n (%)
  Drug-related TEAEs: 25 # Events
  Dyspepsia: 0 n (%)
  Eructation: 1 (16.7) n (%)
  Fatal TEAEs: 0 # Events
  GI TEAEs (Total): 5 (83.3) n (%)
  Gastroesophageal Reflux Disease: 2 (33.3) n (%)
  Nausea: 3 (50.0) n (%)
  Nausea Grade 1: 2 (33.3) n (%)
  Nausea Grade 2: 1 (16.7) n (%)
  Nausea Grade 3: 0 n (%)
  Serious TEAEs: 0 # Events
  Subjects discontinued due to TEAE: 0 n (%)
  Subjects with at least 1 TEAE: 6 n (%)
  TEAE Severity: Grade 1: 6 n (%)
  TEAE Severity: Grade 2: 3 n (%)
  TEAE Severity: Grade 3: 0 n (%)
  Vomiting: 2 (33.3) n (%)
  Vomiting Grade 1: 2 (33.3) n (%)
  Vomiting Grade 2: 1 (16.7) n (%)
  Vomiting Grade 3: 0 n (%)
MAD cohorts, 5 mg up-titrated to 12 mg SC QW over 4 weeks
  tolerability: generally well tolerated; also recorded: generally well-tolerated; also recorded: favorable tolerability profile
